Reference: patent US20230111310A1, “CARBOXYLIC ACID DERIVATIVE-SUBSTITUTED IMINO ARYL COMPOUND, PREPARATION METHOD THEREFOR, HERBICIDAL COMPOSITION AND USE THEREOF” (Qingdao Kingagroot Chemical Compound Co., Ltd., priority 2020, published 2023)

Columns and labels:
Assay in all cases: Weeding effect in post-emergence stage
Assay type in all cases: in vivo
Abutilon theophrasti = conditions: for Weeding effect in post-emergence stage, Abutilon theophrasti (level): fresh weight control rate level; for Weeding effect in post-emergence stage, Abutilon theophrasti: level of fresh weight growth control rate
Summary of the method: (§1)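 Read-out is growth control rate, counted 3 weeks post-spray and averaged over three repeats. Greenhouse plants at the 2-3 leaf stage received spray-tower application at 500, 250, 125, 60, 30, 15 or 7.5 g/ha, with methyl oleate EC (1.5 liter/ha) and Tween 80 added.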

Alopecurus japonicus = conditions: for Weeding effect in post-emergence stage, Alopecurus japonicus (level): fresh weight control rate level; for Weeding effect in post-emergence stage, Alopecurus japonicus: level of fresh weight growth control rate
Summary of the method: as §1

Digitaria sanguinalis = conditions: for Weeding effect in post-emergence stage, Digitaria sanguinalis (level): fresh weight control rate level; for Weeding effect in post-emergence stage, Digitaria sanguinalis: level of fresh weight growth control rate
Summary of the method: as §1

Eleusine indica = conditions: for Weeding effect in post-emergence stage, Eleusine indica (level): fresh weight control rate level; for Weeding effect in post-emergence stage, Eleusine indica: level of fresh weight growth control rate
Summary of the method: as §1

Setaria viridis = conditions: for Weeding effect in post-emergence stage, Setaria viridis (level): fresh weight control rate level; for Weeding effect in post-emergence stage, Setaria viridis: level of fresh weight growth control rate
Summary of the method: as §1

Echinochloa crusgalli = conditions: for Weeding effect in post-emergence stage, Echinochloa crusgalli (level): fresh weight control rate level; for Weeding effect in post-emergence stage, Echinochloa crusgalli: level of fresh weight growth control rate
Summary of the method: as §1

COC(=O)C(O/N=C/c1cc(-n2c(=O)cc(C(F)(F)F)n(C)c2=O)c(F)cc1Cl)C1CCCCC1 (stereo not drawn) [Compound 490]
Weeding effect in post-emergence stage, Abutilon theophrasti (level) (Abutilon theophrasti; Dose 15 g/ha): 5 (Level 5: growth control rate is above 85%) | Weeding effect in post-emergence stage, Alopecurus japonicus (level) (Alopecurus japonicus; Dose 15 g/ha): 5 (Level 5: growth control rate is above 85%) | Weeding effect in post-emergence stage, Digitaria sanguinalis (level) (Digitaria sanguinalis; Dose 15 g/ha): 5 (Level 5: growth control rate is above 85%) | Weeding effect in post-emergence stage, Eleusine indica (level) (Eleusine indica; Dose 15 g/ha): 5 (Level 5: growth control rate is above 85%) | Weeding effect in post-emergence stage, Setaria viridis (level) (Setaria viridis; Dose 15 g/ha): 5 (Level 5: growth control rate is above 85%) | Weeding effect in post-emergence stage, Echinochloa crusgalli (level) (Echinochloa crusgalli; Dose 15 g/ha): 5 (Level 5: growth control rate is above 85%)

COC[C@@H](O/N=C/c1cc(-n2c(=O)n(C)c(=S)n(C)c2=O)c(F)cc1Cl)C(=O)OC [80(R)]
Weeding effect in post-emergence stage, Abutilon theophrasti (Abutilon theophrasti; Dose 15 g/ha): 5 (Level 5: growth control rate is above 85%) | Weeding effect in post-emergence stage, Alopecurus japonicus (Alopecurus japonicus; Dose 15 g/ha): 5 (Level 5: growth control rate is above 85%) | Weeding effect in post-emergence stage, Digitaria sanguinalis (Digitaria sanguinalis; Dose 15 g/ha): 5 (Level 5: growth control rate is above 85%) | Weeding effect in post-emergence stage, Eleusine indica (Eleusine indica; Dose 15 g/ha): 5 (Level 5: growth control rate is above 85%) | Weeding effect in post-emergence stage, Setaria viridis (Setaria viridis; Dose 15 g/ha): 5 (Level 5: growth control rate is above 85%) | Weeding effect in post-emergence stage, Echinochloa crusgalli (Echinochloa crusgalli; Dose 15 g/ha): 5 (Level 5: growth control rate is above 85%)

CC(C)OC(=O)C(C)N(C)N=Cc1cc(-n2c(=O)n(C)c(=S)n(C)c2=O)c(F)cc1Cl (stereo not drawn) [Compound 885]
Weeding effect in post-emergence stage, Abutilon theophrasti (level) (Abutilon theophrasti; Dose 30 g/ha): 5 (Level 5: growth control rate is above 85%) | Weeding effect in post-emergence stage, Alopecurus japonicus (level) (Alopecurus japonicus; Dose 30 g/ha): 5 (Level 5: growth control rate is above 85%) | Weeding effect in post-emergence stage, Digitaria sanguinalis (level) (Digitaria sanguinalis; Dose 30 g/ha): 5 (Level 5: growth control rate is above 85%) | Weeding effect in post-emergence stage, Eleusine indica (level) (Eleusine indica; Dose 30 g/ha): 5 (Level 5: growth control rate is above 85%) | Weeding effect in post-emergence stage, Setaria viridis (level) (Setaria viridis; Dose 30 g/ha): 5 (Level 5: growth control rate is above 85%) | Weeding effect in post-emergence stage, Echinochloa crusgalli (level) (Echinochloa crusgalli; Dose 30 g/ha): 5 (Level 5: growth control rate is above 85%)

COC(=O)C(C)ON=Cc1nc(-n2c(=O)cc(C(F)(F)F)n(C)c2=O)c(F)cc1Cl [504(R)]
Weeding effect in post-emergence stage, Abutilon theophrasti (level) (Abutilon theophrasti; Dose 15 g/ha): 5 (Level 5: growth control rate is above 85%) | Weeding effect in post-emergence stage, Alopecurus japonicus (level) (Alopecurus japonicus; Dose 15 g/ha): 5 (Level 5: growth control rate is above 85%) | Weeding effect in post-emergence stage, Digitaria sanguinalis (level) (Digitaria sanguinalis; Dose 15 g/ha): 5 (Level 5: growth control rate is above 85%) | Weeding effect in post-emergence stage, Eleusine indica (level) (Eleusine indica; Dose 15 g/ha): 5 (Level 5: growth control rate is above 85%) | Weeding effect in post-emergence stage, Setaria viridis (level) (Setaria viridis; Dose 15 g/ha): 5 (Level 5: growth control rate is above 85%) | Weeding effect in post-emergence stage, Echinochloa crusgalli (level) (Echinochloa crusgalli; Dose 15 g/ha): 5 (Level 5: growth control rate is above 85%)

CC(O/N=C/c1cc(-n2c(=O)cc(C(F)(F)F)n(C)c2=O)c(F)cc1Cl)C(=O)OCc1cccc(F)c1 (stereo not drawn) [Compound 285]
Weeding effect in post-emergence stage, Abutilon theophrasti (Abutilon theophrasti; Dose 30 g/ha): 5 (Level 5: growth control rate is above 85%) | Weeding effect in post-emergence stage, Alopecurus japonicus (Alopecurus japonicus; Dose 30 g/ha): 5 (Level 5: growth control rate is above 85%) | Weeding effect in post-emergence stage, Digitaria sanguinalis (Digitaria sanguinalis; Dose 30 g/ha): 5 (Level 5: growth control rate is above 85%) | Weeding effect in post-emergence stage, Eleusine indica (Eleusine indica; Dose 30 g/ha): 5 (Level 5: growth control rate is above 85%) | Weeding effect in post-emergence stage, Setaria viridis (Setaria viridis; Dose 30 g/ha): 5 (Level 5: growth control rate is above 85%) | Weeding effect in post-emergence stage, Echinochloa crusgalli (Echinochloa crusgalli; Dose 30 g/ha): 5 (Level 5: growth control rate is above 85%)

COC(=O)[C@@H](C)S/N=C/c1cc(-n2c(=O)cc(C(F)(F)F)n(C)c2=O)c(F)cc1Cl [730(R)]
Weeding effect in post-emergence stage, Abutilon theophrasti (level) (Abutilon theophrasti; Dose 15 g/ha): 5 (Level 5: growth control rate is above 85%) | Weeding effect in post-emergence stage, Alopecurus japonicus (level) (Alopecurus japonicus; Dose 15 g/ha): 5 (Level 5: growth control rate is above 85%) | Weeding effect in post-emergence stage, Digitaria sanguinalis (level) (Digitaria sanguinalis; Dose 15 g/ha): 5 (Level 5: growth control rate is above 85%) | Weeding effect in post-emergence stage, Eleusine indica (level) (Eleusine indica; Dose 15 g/ha): 5 (Level 5: growth control rate is above 85%) | Weeding effect in post-emergence stage, Setaria viridis (level) (Setaria viridis; Dose 15 g/ha): 5 (Level 5: growth control rate is above 85%) | Weeding effect in post-emergence stage, Echinochloa crusgalli (level) (Echinochloa crusgalli; Dose 15 g/ha): 5 (Level 5: growth control rate is above 85%)

CCCOC(=O)OC(=O)[C@@H](C)O/N=C/c1cc(-n2c(=O)cc(C(F)(F)F)n(C)c2=O)c(F)cc1Cl [236(R)]
Weeding effect in post-emergence stage, Abutilon theophrasti (Abutilon theophrasti; Dose 60 g/ha): 5 (Level 5: growth control rate is above 85%) | Weeding effect in post-emergence stage, Alopecurus japonicus (Alopecurus japonicus; Dose 60 g/ha): 5 (Level 5: growth control rate is above 85%) | Weeding effect in post-emergence stage, Digitaria sanguinalis (Digitaria sanguinalis; Dose 60 g/ha): 5 (Level 5: growth control rate is above 85%) | Weeding effect in post-emergence stage, Eleusine indica (Eleusine indica; Dose 60 g/ha): 5 (Level 5: growth control rate is above 85%) | Weeding effect in post-emergence stage, Setaria viridis (Setaria viridis; Dose 60 g/ha): 5 (Level 5: growth control rate is above 85%) | Weeding effect in post-emergence stage, Echinochloa crusgalli (Echinochloa crusgalli; Dose 60 g/ha): 5 (Level 5: growth control rate is above 85%)

C[C@@H](O/N=C/c1cc(-n2c(=O)cc(C(F)(F)F)n(C)c2=O)c(F)cc1Cl)C(=O)OCc1ccccc1F [284(R)]
Weeding effect in post-emergence stage, Abutilon theophrasti (Abutilon theophrasti; Dose 15 g/ha): 5 (Level 5: growth control rate is above 85%) | Weeding effect in post-emergence stage, Alopecurus japonicus (Alopecurus japonicus; Dose 15 g/ha): 5 (Level 5: growth control rate is above 85%) | Weeding effect in post-emergence stage, Digitaria sanguinalis (Digitaria sanguinalis; Dose 15 g/ha): 5 (Level 5: growth control rate is above 85%) | Weeding effect in post-emergence stage, Eleusine indica (Eleusine indica; Dose 15 g/ha): 5 (Level 5: growth control rate is above 85%) | Weeding effect in post-emergence stage, Setaria viridis (Setaria viridis; Dose 15 g/ha): 5 (Level 5: growth control rate is above 85%) | Weeding effect in post-emergence stage, Echinochloa crusgalli (Echinochloa crusgalli; Dose 15 g/ha): 5 (Level 5: growth control rate is above 85%)

C=CCC(O/N=C/c1cc(-n2c(=O)cc(C(F)(F)F)n(C)c2=O)c(F)cc1Cl)C(=O)OC (stereo not drawn) [Compound 487]
Weeding effect in post-emergence stage, Abutilon theophrasti (level) (Abutilon theophrasti; Dose 15 g/ha): 5 (Level 5: growth control rate is above 85%) | Weeding effect in post-emergence stage, Alopecurus japonicus (level) (Alopecurus japonicus; Dose 15 g/ha): 5 (Level 5: growth control rate is above 85%) | Weeding effect in post-emergence stage, Digitaria sanguinalis (level) (Digitaria sanguinalis; Dose 15 g/ha): 5 (Level 5: growth control rate is above 85%) | Weeding effect in post-emergence stage, Eleusine indica (level) (Eleusine indica; Dose 15 g/ha): 5 (Level 5: growth control rate is above 85%) | Weeding effect in post-emergence stage, Setaria viridis (level) (Setaria viridis; Dose 15 g/ha): 5 (Level 5: growth control rate is above 85%) | Weeding effect in post-emergence stage, Echinochloa crusgalli (level) (Echinochloa crusgalli; Dose 15 g/ha): 5 (Level 5: growth control rate is above 85%)

C[C@@H](O/N=C/c1cc(-n2c(=O)n(C)c(=S)n(C)c2=O)c(F)cc1Cl)C(=O)OCc1ccncc1 [60(R)]
Weeding effect in post-emergence stage, Abutilon theophrasti (Abutilon theophrasti; Dose 15 g/ha): 5 (Level 5: growth control rate is above 85%) | Weeding effect in post-emergence stage, Alopecurus japonicus (Alopecurus japonicus; Dose 15 g/ha): 4 (Level 4: growth control rate is greater than or equal to 60% and less than 85%) | Weeding effect in post-emergence stage, Digitaria sanguinalis (Digitaria sanguinalis; Dose 15 g/ha): 5 (Level 5: growth control rate is above 85%) | Weeding effect in post-emergence stage, Eleusine indica (Eleusine indica; Dose 15 g/ha): 5 (Level 5: growth control rate is above 85%) | Weeding effect in post-emergence stage, Setaria viridis (Setaria viridis; Dose 15 g/ha): 5 (Level 5: growth control rate is above 85%) | Weeding effect in post-emergence stage, Echinochloa crusgalli (Echinochloa crusgalli; Dose 15 g/ha): 5 (Level 5: growth control rate is above 85%)

CC(O/N=C/c1cc(-n2c(=O)cc(C(F)(F)F)n(C)c2=O)c(F)cc1Cl)C(=O)ON1C(=O)CCC1=O (stereo not drawn) [Compound 263]
Weeding effect in post-emergence stage, Abutilon theophrasti (Abutilon theophrasti; Dose 60 g/ha): 5 (Level 5: growth control rate is above 85%) | Weeding effect in post-emergence stage, Alopecurus japonicus (Alopecurus japonicus; Dose 60 g/ha): 5 (Level 5: growth control rate is above 85%) | Weeding effect in post-emergence stage, Digitaria sanguinalis (Digitaria sanguinalis; Dose 60 g/ha): 5 (Level 5: growth control rate is above 85%) | Weeding effect in post-emergence stage, Eleusine indica (Eleusine indica; Dose 60 g/ha): 5 (Level 5: growth control rate is above 85%) | Weeding effect in post-emergence stage, Setaria viridis (Setaria viridis; Dose 60 g/ha): 5 (Level 5: growth control rate is above 85%) | Weeding effect in post-emergence stage, Echinochloa crusgalli (Echinochloa crusgalli; Dose 60 g/ha): 5 (Level 5: growth control rate is above 85%)

CC(C)OC(=O)C(C)O/N=C/c1cc(-n2c(=O)cc(C(F)(F)F)n(C)c2=O)c(F)cc1Cl (racemic) [Compound 199]
Weeding effect in post-emergence stage, Abutilon theophrasti (Abutilon theophrasti; Dose 15 g/ha): 5 (Level 5: growth control rate is above 85%) | Weeding effect in post-emergence stage, Alopecurus japonicus (Alopecurus japonicus; Dose 15 g/ha): 5 (Level 5: growth control rate is above 85%) | Weeding effect in post-emergence stage, Digitaria sanguinalis (Digitaria sanguinalis; Dose 15 g/ha): 5 (Level 5: growth control rate is above 85%) | Weeding effect in post-emergence stage, Eleusine indica (Eleusine indica; Dose 15 g/ha): 5 (Level 5: growth control rate is above 85%) | Weeding effect in post-emergence stage, Setaria viridis (Setaria viridis; Dose 15 g/ha): 5 (Level 5: growth control rate is above 85%) | Weeding effect in post-emergence stage, Echinochloa crusgalli (Echinochloa crusgalli; Dose 15 g/ha): 5 (Level 5: growth control rate is above 85%)

C[C@@H](O/N=C/c1cc(-n2c(=O)cc(C(F)(F)F)n(C)c2=O)c(F)cc1Cl)C(=O)OCc1cccnc1 [302(R)]
Weeding effect in post-emergence stage, Abutilon theophrasti (Abutilon theophrasti; Dose 15 g/ha): 5 (Level 5: growth control rate is above 85%) | Weeding effect in post-emergence stage, Alopecurus japonicus (Alopecurus japonicus; Dose 15 g/ha): 5 (Level 5: growth control rate is above 85%) | Weeding effect in post-emergence stage, Digitaria sanguinalis (Digitaria sanguinalis; Dose 15 g/ha): 5 (Level 5: growth control rate is above 85%) | Weeding effect in post-emergence stage, Eleusine indica (Eleusine indica; Dose 15 g/ha): 5 (Level 5: growth control rate is above 85%) | Weeding effect in post-emergence stage, Setaria viridis (Setaria viridis; Dose 15 g/ha): 5 (Level 5: growth control rate is above 85%) | Weeding effect in post-emergence stage, Echinochloa crusgalli (Echinochloa crusgalli; Dose 15 g/ha): 5 (Level 5: growth control rate is above 85%)
